The source made the active and inactive calls. Cut-off read from the data, not from the text of the source, for most assays here: actives have a measured EC50 and inactives only a lower limit.
Key:
cells [1] = assay type: functional, cell-based
cells [2] = assay type: functional, cell-based; remark: listed apart in the source
[3] = biological target: T1, RNA-binding protein pos-1 (Caenorhabditis elegans, UniProt G5EF15); experiment: inhibitors of POS-1/mex-3 RNA binding, dose response, biochemical, fluorescence polarization (AID 1964);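 note: purified POS-1 fused to maltose binding protein made in E. coli; potency of compounds blocking POS-1 binding to fluorescent RNA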
T1 sequence (G5EF15 whole entry): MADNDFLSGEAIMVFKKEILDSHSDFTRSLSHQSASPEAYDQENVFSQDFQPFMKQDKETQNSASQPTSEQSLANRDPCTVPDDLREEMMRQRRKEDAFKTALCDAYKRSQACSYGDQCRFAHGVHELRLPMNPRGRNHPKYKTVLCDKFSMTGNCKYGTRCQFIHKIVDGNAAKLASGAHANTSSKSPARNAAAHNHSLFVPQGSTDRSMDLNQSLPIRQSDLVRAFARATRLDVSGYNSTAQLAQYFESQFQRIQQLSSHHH

[4] = biological target: T2, Zinc finger protein mex-5 (Caenorhabditis elegans, UniProt Q9XUB2); experiment: MEX-5/TCR-2 RNA interaction inhibitors, dose response, biochemical, C. elegans, fluorescence polarization (AID 1960)
T2 sequence (Q9XUB2 whole entry): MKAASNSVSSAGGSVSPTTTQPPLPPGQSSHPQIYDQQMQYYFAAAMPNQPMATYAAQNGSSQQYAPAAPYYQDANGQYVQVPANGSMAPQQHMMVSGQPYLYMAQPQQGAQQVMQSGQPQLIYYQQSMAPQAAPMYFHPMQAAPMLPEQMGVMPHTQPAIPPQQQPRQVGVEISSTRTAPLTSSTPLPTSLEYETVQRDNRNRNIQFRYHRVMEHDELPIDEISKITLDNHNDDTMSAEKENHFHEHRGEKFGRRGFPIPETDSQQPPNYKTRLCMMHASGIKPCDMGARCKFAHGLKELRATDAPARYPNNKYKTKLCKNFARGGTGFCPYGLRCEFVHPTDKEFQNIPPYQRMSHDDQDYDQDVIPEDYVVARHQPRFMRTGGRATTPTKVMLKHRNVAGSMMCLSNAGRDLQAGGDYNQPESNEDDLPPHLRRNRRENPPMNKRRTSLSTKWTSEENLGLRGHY

[5] = biological target: T3, Heat shock factor protein 1 (Mus musculus, UniProt P38532); experiment: inhibition of MG132-induced HSE-luciferase signal, confirmation, cell-based, NIH3T3, luminescence, dose retest (AID 2382); assay type: functional;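 note: NIH3T3 fibroblasts with HSF1-driven luciferase reporter stressed by proteasome inhibitor MG132; luminescence from HSF1-driven luciferase expression after 8 hours of MG132 stress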
T3 sequence (P38532 whole entry): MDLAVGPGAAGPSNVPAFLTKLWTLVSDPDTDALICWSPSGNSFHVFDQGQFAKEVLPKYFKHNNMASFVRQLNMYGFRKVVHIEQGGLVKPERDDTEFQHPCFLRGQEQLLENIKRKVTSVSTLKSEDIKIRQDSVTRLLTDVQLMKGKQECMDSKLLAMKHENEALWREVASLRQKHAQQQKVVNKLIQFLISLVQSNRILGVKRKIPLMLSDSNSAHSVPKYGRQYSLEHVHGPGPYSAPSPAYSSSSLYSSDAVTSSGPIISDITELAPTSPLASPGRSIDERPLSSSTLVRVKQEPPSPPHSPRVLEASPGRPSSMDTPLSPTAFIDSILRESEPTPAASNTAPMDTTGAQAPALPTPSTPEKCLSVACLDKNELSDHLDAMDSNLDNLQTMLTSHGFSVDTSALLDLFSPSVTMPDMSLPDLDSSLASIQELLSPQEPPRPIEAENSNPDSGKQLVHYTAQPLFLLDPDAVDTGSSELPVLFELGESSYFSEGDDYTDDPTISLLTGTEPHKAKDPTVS

Caspase-3 = biological target: T4, Caspase-3 (Homo sapiens, UniProt P42574); assay type: functional;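 note: Dose-response selectivity test against caspase-3 for candidate inhibitors of sentrin-specific proteases (SENPs)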
T4 sequence (P42574 whole entry): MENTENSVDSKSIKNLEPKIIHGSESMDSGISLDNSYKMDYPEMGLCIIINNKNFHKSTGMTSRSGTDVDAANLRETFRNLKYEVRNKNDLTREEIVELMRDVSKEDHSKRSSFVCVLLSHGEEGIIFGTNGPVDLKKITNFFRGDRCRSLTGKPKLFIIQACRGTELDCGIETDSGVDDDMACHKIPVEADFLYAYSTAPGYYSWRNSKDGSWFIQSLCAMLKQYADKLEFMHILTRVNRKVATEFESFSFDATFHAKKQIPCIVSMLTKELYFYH

[6] = biological target: T5, Sentrin-specific protease 7 (Homo sapiens, UniProt Q9BQF6); assay type: functional;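 note: Luminescence-based dose-response confirmation of ultra-high-throughput screening hits, measuring inhibition of SENP7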
T5 sequence (Q9BQF6 whole entry): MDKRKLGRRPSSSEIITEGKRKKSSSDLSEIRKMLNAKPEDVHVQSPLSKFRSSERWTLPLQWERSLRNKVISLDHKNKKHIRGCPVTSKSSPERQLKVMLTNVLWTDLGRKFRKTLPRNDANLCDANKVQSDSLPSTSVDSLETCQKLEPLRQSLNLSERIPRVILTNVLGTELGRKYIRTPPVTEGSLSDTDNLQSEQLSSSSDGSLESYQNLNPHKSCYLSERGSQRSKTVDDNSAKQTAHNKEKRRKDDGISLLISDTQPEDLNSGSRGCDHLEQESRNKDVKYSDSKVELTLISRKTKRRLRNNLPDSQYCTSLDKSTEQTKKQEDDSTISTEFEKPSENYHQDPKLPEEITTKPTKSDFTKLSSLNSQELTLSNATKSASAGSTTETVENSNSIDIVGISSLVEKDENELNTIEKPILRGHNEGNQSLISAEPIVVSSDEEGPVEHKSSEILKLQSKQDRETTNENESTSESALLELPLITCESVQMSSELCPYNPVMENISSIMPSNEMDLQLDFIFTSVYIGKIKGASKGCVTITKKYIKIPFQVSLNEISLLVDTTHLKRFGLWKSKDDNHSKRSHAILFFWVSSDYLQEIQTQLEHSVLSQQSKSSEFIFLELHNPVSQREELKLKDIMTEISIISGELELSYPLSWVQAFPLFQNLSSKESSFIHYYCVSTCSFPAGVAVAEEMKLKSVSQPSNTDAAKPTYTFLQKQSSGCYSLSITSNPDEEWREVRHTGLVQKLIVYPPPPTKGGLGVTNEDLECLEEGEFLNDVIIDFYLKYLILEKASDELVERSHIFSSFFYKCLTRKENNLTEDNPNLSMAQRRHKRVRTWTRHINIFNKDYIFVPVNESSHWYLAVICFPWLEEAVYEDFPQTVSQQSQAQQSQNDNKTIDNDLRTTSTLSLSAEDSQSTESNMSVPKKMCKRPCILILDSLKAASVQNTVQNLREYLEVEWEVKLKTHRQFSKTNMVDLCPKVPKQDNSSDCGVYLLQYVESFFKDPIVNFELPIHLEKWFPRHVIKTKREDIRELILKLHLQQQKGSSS

[7] = biological target: T6, Sentrin-specific protease 6 (Homo sapiens, UniProt Q9GZR1); assay type: functional;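 note: Luminescence-based dose-response confirmatory assay of SENP6 inhibition, following up an ultra-high-throughput screen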
T6 sequence (Q9GZR1 whole entry): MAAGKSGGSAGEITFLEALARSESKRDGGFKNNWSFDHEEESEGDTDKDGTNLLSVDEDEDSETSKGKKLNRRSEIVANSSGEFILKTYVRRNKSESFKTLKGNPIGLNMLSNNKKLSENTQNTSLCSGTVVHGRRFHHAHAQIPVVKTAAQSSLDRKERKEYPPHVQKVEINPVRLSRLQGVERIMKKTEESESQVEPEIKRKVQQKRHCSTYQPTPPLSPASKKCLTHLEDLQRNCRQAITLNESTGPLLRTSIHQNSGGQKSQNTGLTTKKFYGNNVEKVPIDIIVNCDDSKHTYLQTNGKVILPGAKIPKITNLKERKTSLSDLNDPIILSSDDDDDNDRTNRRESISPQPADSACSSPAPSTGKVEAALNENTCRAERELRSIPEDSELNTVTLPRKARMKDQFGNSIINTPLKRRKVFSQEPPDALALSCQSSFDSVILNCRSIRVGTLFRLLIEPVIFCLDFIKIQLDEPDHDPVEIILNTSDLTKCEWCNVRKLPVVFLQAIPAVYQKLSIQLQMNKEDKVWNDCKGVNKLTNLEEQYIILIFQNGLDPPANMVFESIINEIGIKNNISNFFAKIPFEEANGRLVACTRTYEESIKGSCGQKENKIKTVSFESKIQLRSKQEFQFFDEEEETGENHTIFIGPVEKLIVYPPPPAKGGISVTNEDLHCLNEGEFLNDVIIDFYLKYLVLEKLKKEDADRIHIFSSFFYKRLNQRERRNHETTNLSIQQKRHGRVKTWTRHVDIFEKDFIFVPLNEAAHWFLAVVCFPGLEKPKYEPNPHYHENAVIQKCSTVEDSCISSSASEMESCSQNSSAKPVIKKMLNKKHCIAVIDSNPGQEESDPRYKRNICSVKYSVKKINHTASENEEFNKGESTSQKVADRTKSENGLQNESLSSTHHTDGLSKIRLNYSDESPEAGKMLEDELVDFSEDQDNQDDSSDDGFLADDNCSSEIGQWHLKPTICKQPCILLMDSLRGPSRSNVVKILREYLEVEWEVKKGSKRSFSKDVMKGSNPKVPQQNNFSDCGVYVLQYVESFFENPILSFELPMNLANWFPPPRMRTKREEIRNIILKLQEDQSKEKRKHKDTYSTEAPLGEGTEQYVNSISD

[8] = biological target: T7, Sentrin-specific protease 8 (Homo sapiens, UniProt Q96LD8); assay type: functional;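 note: luminescence read-out of SENP8 inhibition, dose-response confirmation following an ultra-high-throughput screen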
T7 sequence (Q96LD8 whole entry): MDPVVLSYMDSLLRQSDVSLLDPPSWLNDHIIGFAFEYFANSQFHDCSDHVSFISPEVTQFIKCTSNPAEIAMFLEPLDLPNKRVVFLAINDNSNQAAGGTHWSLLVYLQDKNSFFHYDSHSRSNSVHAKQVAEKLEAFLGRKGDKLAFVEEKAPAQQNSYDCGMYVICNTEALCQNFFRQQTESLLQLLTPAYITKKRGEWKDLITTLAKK

[9] = biological target: T3, Heat shock factor protein 1; experiment: HSF1 potentiators in luciferase reporter cells, confirmation, cell-based, NIH3T3, luminescence, dose retest (AID 435004); assay type: functional;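 note: stress induced by proteasome inhibitor MG132 added 30 min after compound; luciferase reporter driven by HSF1 response element in NIH3T3 cells; actives raise luminescence as potentiators of the MG132 stress response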

COc1ccccc1CC(=N)NO
EC50 (cells [1]): > 350 µM (not active)
EC50 (cells [2]): > 350 µM (not active)

Cc1ccc(CN(C)C(=O)CC2C(=O)NCCN2CC2CCCCC2)cc1 (configuration not stated)
EC50 [3]: 175 µM (active)
EC50 [4]: > 300 µM (not active)

C#Cc1ccc([C@@H]2C=C(C(=O)OCC=C)O[C@H](OCc3ccc(CO)cc3)C2)cc1
EC50 [5]: > 195 µM (not active)

CC(C)c1cc(-c2cc(C(=O)NCc3ccccc3)on2)nc(NC2CCCC2)n1
EC50 (cells [1]): > 350 µM (not active)
EC50 (cells [2]): > 350 µM (not active)

COc1ccc(Cc2nnc(SCC(=O)NC3CCCCC3)n2C)cc1
EC50 (cells [1]): > 350 µM (not active)
EC50 (cells [2]): > 350 µM (not active)

CCOC(=O)c1ccc(-n2c(CCC(=O)O)ccc2-c2ccc(F)cc2)cc1
EC50 [3]: > 300 µM (not active)
EC50 [4]: > 300 µM (not active)

CNC(=S)Nc1ccc(-c2nc3ccc(C)cc3s2)cc1
IC50 (Caspase-3): 7.31 µM (active)
IC50 [6]: 3.62 µM (active)
IC50 [7]: 5.18 µM (active)
IC50 [8]: 5.47 µM (active)

Cc1cccc(-c2noc(-c3c(C)noc3C)n2)c1
IC50 (Caspase-3): 29.8 µM (active)
IC50 [6]: 6.22 µM (active)
IC50 [7]: > 100 µM (inactive)
IC50 [8]: > 100 µM (inactive)

Cc1csc(NC(=O)c2ccc(Br)s2)n1
IC50 (Caspase-3): 14 µM (active)
IC50 [6]: 7.6 µM (active)
IC50 [7]: 24.9 µM (active)
IC50 [8]: 27.4 µM (active)

Cc1noc(C)c1CSc1ncnc2sc3c(c12)CCC3
EC50 [5]: > 195 µM (not active)

CCOc1ccc(NC(=O)CC2C(=O)Nc3ccccc3N2C(=O)c2ccccc2)cc1 (configuration not stated)
EC50 (cells [1]): > 350 µM (not active)
EC50 (cells [2]): > 350 µM (not active)

CCN1C(=O)/C(=C\N(C)C)NC1=S
EC50 [3]: 22.6 µM (active)
EC50 [4]: 154 µM (inconclusive)

CCCCc1nnc(NC(=O)c2ccc3nc(O)c(O)nc3c2)s1
EC50 (cells [1]): > 350 µM (not active)
EC50 (cells [2]): > 350 µM (not active)

C=CCOc1ccc(C(c2c(C)n(C)n(-c3ccccc3)c2=O)c2c(C)n(C)n(-c3ccccc3)c2=O)cc1
EC50 [5]: > 195 µM (not active)

COc1ccc(CCC(=O)Nc2cccc(Cl)c2)cc1
EC50 [3]: > 300 µM (not active)
EC50 [4]: > 300 µM (not active)

CCOC(=O)C1=C(C)OC(N)=C(C#N)C1c1ccc(O)c(OC)c1 (configuration not stated)
EC50 [3]: > 300 µM (not active)
EC50 [4]: > 300 µM (not active)

Cc1ccc(C(=O)OCC(=O)c2ccc(Cl)s2)s1
IC50 (Caspase-3): 18.9 µM (active)
IC50 [6]: 7.61 µM (active)
EC50 [9]: 20.3 µM (active)
IC50 [7]: 24.6 µM (active)
IC50 [8]: 29.7 µM (active)

Cn1c(C(=O)NN)cc2cc(OCc3ccccc3)ccc21
EC50 [5]: > 195 µM (not active)

CCNC(=O)c1cc2c(=O)n3cccc(C)c3nc2n(Cc2ccc(C)cc2)c1=N
EC50 [3]: > 300 µM (not active)
EC50 [4]: 45.5 µM (active)

CNC(=O)Cn1nc(C)c2ccccc2c1=O
EC50 [5]: > 195 µM (not active)

CCc1ccc(OC(C)C(=O)N(Cc2ccco2)C2CCS(=O)(=O)C2)cc1 (configuration not stated)
EC50 [5]: > 195 µM (not active)

Cc1noc(C)c1COC(=O)C1CC(O)CN1S(=O)(=O)c1ccc(Cl)cc1 (configuration not stated)
EC50 (cells [1]): > 350 µM (not active)
EC50 (cells [2]): > 350 µM (not active)

Cc1ccc(Cn2ccs/c2=N\C(=O)COC(=O)c2ccc(O)cc2O)cc1
IC50 (Caspase-3): 37.1 µM (active)
IC50 [6]: 7.79 µM (active)
IC50 [7]: 10.6 µM (active)
IC50 [8]: > 100 µM (inactive)

COc1ccc(/C=N/NC(=O)CN(C)S(=O)(=O)c2ccc(NC(C)=O)cc2)cc1
EC50 [5]: > 195 µM (not active)

Source: ChEMBL document CHEMBL1201862, “PubChem BioAssay data set” (2004)
